The values that follow come from PMC9250534, “Synthesis and direct assay of large macrocycle diversities by combinatorial late-stage modification at picomole scale” (Nature Communications, 2022).

SMILES strings stand for the structures.

Chain of MDM2 (Q00987 whole entry): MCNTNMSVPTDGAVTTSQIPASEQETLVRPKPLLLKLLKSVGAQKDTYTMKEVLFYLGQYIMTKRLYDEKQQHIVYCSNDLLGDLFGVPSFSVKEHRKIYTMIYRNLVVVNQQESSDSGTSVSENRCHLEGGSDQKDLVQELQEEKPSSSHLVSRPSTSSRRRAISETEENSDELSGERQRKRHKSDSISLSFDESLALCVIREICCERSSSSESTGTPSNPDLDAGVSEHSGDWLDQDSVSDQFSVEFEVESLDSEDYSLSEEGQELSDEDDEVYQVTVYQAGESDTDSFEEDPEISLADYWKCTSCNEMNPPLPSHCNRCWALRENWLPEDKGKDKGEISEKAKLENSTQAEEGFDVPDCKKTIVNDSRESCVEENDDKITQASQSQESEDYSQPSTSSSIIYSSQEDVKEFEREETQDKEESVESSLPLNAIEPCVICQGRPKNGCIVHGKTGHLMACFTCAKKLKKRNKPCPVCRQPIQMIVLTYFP

One assay has as its target MDM2 (Homo sapiens, UniProt Q00987). Put plainly: MDM2 binding screen of Libraries 3 and 4: displacement of fluorescent probe F-M8 at 750 nM macrocycle. The note with it: Panel b, Library 3: 63 scaffolds combinatorially acylated with 15 carboxylic acids at 30 picomole scale; displacement of fluorescent peptide probe; macrocycle 750 nM. The method, boiled down:
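Cyclic peptide scaffolds were acylated in DMSO with carboxylic acids (20 equiv.), HBTU and DABCO for 6 h at room temperature. Reactions were quenched overnight in 100 mM Tris-Cl pH 7.4, 0.01% Tween20. The fluorescein conjugate was also competed with nutlin-3a.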
`O=C(NC[C@@H]1NC(=O)[C@@H]2CN(CCO2)C(=O)CCSSCCNC(=O)[C@H](Cc2c[nH]c3cc(Cl)ccc23)NC1=O)c1ccc(Cl)s1` [X-Cop-Dap-Cl-Trp + Acid 14]: the “fraction of fluorescent probe displaced” value came out at 0.128. On the same count and under the same terms, the result for `O=C(NCC1NC(=O)C2CN(CCO2)C(=O)CCSSCCNC(=O)C(Cc2c[nH]c3cc(Cl)ccc23)NC1=O)c1ccc(Cl)cc1` (stereo not drawn) [X-Cop-Dap-Cl-Trp + Acid 25] reads 0.088; that for `O=C(C=Cc1ccncc1)NCC1NC(=O)C2CN(CCO2)C(=O)CCSSCCNC(=O)C(Cc2c[nH]c3cc(Cl)ccc23)NC1=O` (stereo not drawn) [X-Cop-Dap-Cl-Trp + Acid 106], 0.284. The same measure, in the same setting: next, `O=C(NC[C@@H]1NC(=O)[C@@H]2CN(CCO2)C(=O)CCSSCCNC(=O)[C@H](Cc2c[nH]c3cc(Cl)ccc23)NC1=O)c1ccc2ccccc2c1` [X-Cop-Dap-Cl-Trp + Acid 107]: 0.102; `O=C(C=Cc1ccc(Cl)cc1)NCC1NC(=O)C2CN(CCO2)C(=O)CCSSCCNC(=O)C(Cc2c[nH]c3cc(Cl)ccc23)NC1=O` (stereo not drawn) [X-Cop-Dap-Cl-Trp + Acid 108]: 0.075. The same measure, in the same setting: next, `O=C(/C=C/c1ccc(OCc2ccccc2)cc1)NC[C@@H]1NC(=O)[C@@H]2CN(CCO2)C(=O)CCSSCCNC(=O)[C@H](Cc2c[nH]c3cc(Cl)ccc23)NC1=O` [X-Cop-Dap-Cl-Trp + Acid 110]: 0.021; `O=C(CCS(=O)(=O)c1ccccc1)NC[C@@H]1NC(=O)[C@@H]2CN(CCO2)C(=O)CCSSCCNC(=O)[C@H](Cc2c[nH]c3cc(Cl)ccc23)NC1=O` [X-Cop-Dap-Cl-Trp + Acid 114]: -0.039.

Take `O=C(NC[C@@H]1NC(=O)[C@@H]2CN(CCO2)C(=O)CCSSCCNC(=O)[C@@H](Cc2c[nH]c3ccccc23)NC1=O)c1ccc(Cl)cc1` [X-Cop-Dap-D-Trp + Acid 25]: the “fraction of fluorescent probe displaced” value is on record as -0.012. On the same count and under the same terms, next, `O=C(/C=C/c1ccc2ccccc2c1)NC[C@@H]1NC(=O)[C@@H]2CN(CCO2)C(=O)CCSSCCNC(=O)[C@@H](Cc2c[nH]c3ccccc23)NC1=O` [X-Cop-Dap-D-Trp + Acid 112]: 0.028; `O=C(CCS(=O)(=O)c1ccccc1)NC[C@@H]1NC(=O)[C@@H]2CN(CCO2)C(=O)CCSSCCNC(=O)[C@@H](Cc2c[nH]c3ccccc23)NC1=O` [X-Cop-Dap-D-Trp + Acid 114]: 0.021; `O=C(NC[C@@H]1NC(=O)[C@@H]2CN(CCO2)C(=O)CCSSCCNC(=O)[C@@H](Cc2c[nH]c3ccccc23)NC1=O)C1COc2ccccc2O1` (stereo partly drawn) [X-Cop-Dap-D-Trp + Acid 115]: 0.008. With `Cn1cc(C[C@@H]2NC(=O)[C@H](CNC(=O)c3ccc(Cl)s3)NC(=O)[C@@H]3CN(CCO3)C(=O)CCSSCCNC2=O)c2ccccc21` [X-Cop-Dap-Me-Trp + Acid 14], the “fraction of fluorescent probe displaced” value was 0.00133.

Still in this assay, the particulars now being: Panel c, Library 4: best nine scaffolds and 15 additional carboxylic acids; displacement of fluorescent probe.
For `CCOc1ccc(/C=C/C(=O)NC[C@@H]2NC(=O)[C@@H]3CN(CCO3)C(=O)CCSSCCNC(=O)[C@H](Cc3c[nH]c4cc(Cl)ccc34)NC2=O)cc1` [X-Cop-Dap-Cl-Trp + Acid 117], the “fraction of fluorescent probe displaced” value is given as 0.175. Still for that read-out and setting: the result for `O=C(/C=C/c1ccc(Cl)c(Cl)c1)NC[C@@H]1NC(=O)[C@@H]2CN(CCO2)C(=O)CCSSCCNC(=O)[C@H](Cc2c[nH]c3cc(Cl)ccc23)NC1=O` [X-Cop-Dap-Cl-Trp + Acid 119] reads 0.126; that for `C/C(=C\c1ccccc1)C(=O)NC[C@@H]1NC(=O)[C@@H]2CN(CCO2)C(=O)CCSSCCNC(=O)[C@H](Cc2c[nH]c3cc(Cl)ccc23)NC1=O` [X-Cop-Dap-Cl-Trp + Acid 123], 0.012.

As for `CC(C)c1ccc(/C=C/C(=O)NC[C@@H]2NC(=O)[C@@H]3CN(CCO3)C(=O)CCSSCCNC(=O)[C@H](Cc3c[nH]c4cc(Cl)ccc34)NC2=O)cc1` [X-Cop-Dap-Cl-Trp + Acid 127], the “fraction of fluorescent probe displaced” value is given as 0.085.
